Results taken from PubChem BioAssay (NCI).
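Step 1: Grow cells in 96-well plates. Step 2: Expose to compound for 48 hours at 5 concentrations. Step 3: Interpolate endpoints linearly; if unreached, use highest concentration. GI50: concentration for 50% inhibition of growth. TGI: concentration producing complete growth inhibition.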

Key:
Assay in all cases: NCI-60 cell line screen, 48 h
[1] = test system: CAKI-1 renal
[2] = test system: SNB-75 CNS
[3] = test system: NCI-H460 lung
[4] = test system: CCRF-CEM leukemia
[5] = test system: EKVX NSCLC
[6] = test system: HCT-116 colon
[7] = test system: NCI-H522 lung
[8] = test system: OVCAR-3 ovarian
[9] = test system: A498 renal
[10] = test system: A549 NSCLC
[11] = test system: TK-10 renal
[12] = test system: NCI-H23 lung
[13] = test system: 786-0 renal
[14] = test system: HCC-2998 colon
[15] = test system: LOX IMVI melanoma
[16] = test system: HL-60(TB) leukemia
[17] = test system: UACC-62 melanoma
[18] = test system: SK-MEL-5 melanoma
[19] = test system: HCT-15 colon
[20] = test system: OVCAR-8 ovarian
[21] = test system: OVCAR-5 ovarian
[22] = test system: SF-539 CNS
[23] = test system: DU-145 prostate
[24] = test system: U251 CNS
[25] = test system: RXF 393 renal
[26] = test system: MCF7 breast
[27] = test system: BT-549 breast
[28] = test system: T-47D breast
[29] = test system: MDA-MB-231 breast

COC(=O)[C@]1(C)CC[C@]2(C)CC[C@]3(C)C(=CC(=O)[C@@H]4[C@@]5(C)CCC(=O)NC(C)(C)[C@@H]5CC[C@]43C)[C@@H]2C1 was tested. Which GI50 [1] did it give?
The GI50 was 35.9 µM.

And the TGI [1]?
The TGI was over 100 µM.

What about the GI50 [2] of the same compound?
The GI50 was 25.5 µM.

And the TGI [2]?
Its TGI is over 100 µM.

What about the GI50 [3] of the same compound?
The GI50 was 20.1 µM.

What about the TGI [3] of the same compound?
The TGI was 58.8 µM.

What about the GI50 [4] of the same compound?
Its GI50 is 15.1 µM.

What about the TGI [4] of the same compound?
The TGI was 44.6 µM.

And the GI50 [5]?
The GI50 was 25.5 µM.

What about the TGI [5] of the same compound?
The TGI was over 100 µM.

What about the GI50 [6] of the same compound?
The GI50 was 10.8 µM.

And the TGI [6]?
Its TGI is 25.6 µM.

What about the GI50 [7] of the same compound?
Its GI50 is 18.2 µM.

What about the TGI [7] of the same compound?
Its TGI is 69.3 µM.

What about the GI50 [8] of the same compound?
Its GI50 is 15.3 µM.

What about the TGI [8] of the same compound?
The TGI was 32.7 µM.

And the GI50 [9]?
Its GI50 is 21.4 µM.

What about the TGI [9] of the same compound?
Its TGI is 46.4 µM.

What about the GI50 [10] of the same compound?
Its GI50 is 32.8 µM.

And the TGI [10]?
Its TGI is over 100 µM.

And the GI50 [11]?
Its GI50 is 40.2 µM.

And the TGI [11]?
The TGI was over 100 µM.

And the GI50 [12]?
Its GI50 is 31 µM.

And the TGI [12]?
The TGI was over 100 µM.

What about the GI50 [13] of the same compound?
Its GI50 is 18.3 µM.

What about the TGI [13] of the same compound?
The TGI was 35 µM.

And the GI50 [14]?
Its GI50 is 18.4 µM.

And the TGI [14]?
The TGI was 38.7 µM.

And the GI50 [15]?
Its GI50 is 16.6 µM.

What about the TGI [15] of the same compound?
The TGI was 32.3 µM.

And the GI50 [16]?
The GI50 was 16.2 µM.

What about the TGI [16] of the same compound?
Its TGI is 41.6 µM.

And the GI50 [17]?
Its GI50 is 15.3 µM.

And the TGI [17]?
Its TGI is 38.2 µM.

And the GI50 [18]?
Its GI50 is 14.7 µM.

And the TGI [18]?
Its TGI is 28.9 µM.

What about the GI50 [19] of the same compound?
The GI50 was 16.1 µM.

And the TGI [19]?
Its TGI is over 100 µM.

What about the GI50 [20] of the same compound?
The GI50 was 29.2 µM.

What about the TGI [20] of the same compound?
The TGI was over 100 µM.

What about the GI50 [21] of the same compound?
The GI50 was 21.3 µM.

And the TGI [21]?
Its TGI is 38.9 µM.

And the GI50 [22]?
The GI50 was 14.6 µM.

And the TGI [22]?
Its TGI is 28.6 µM.

What about the GI50 [23] of the same compound?
The GI50 was 20.9 µM.

And the TGI [23]?
Its TGI is 89.6 µM.

What about the GI50 [24] of the same compound?
The GI50 was 23.3 µM.

And the TGI [24]?
Its TGI is 89.3 µM.

What about the GI50 [25] of the same compound?
Its GI50 is 13.5 µM.

What about the TGI [25] of the same compound?
The TGI was 27.5 µM.

What about the GI50 [26] of the same compound?
Its GI50 is 13.3 µM.

What about the TGI [26] of the same compound?
Its TGI is 43.5 µM.

And the GI50 [27]?
The GI50 was 12.8 µM.

What about the TGI [27] of the same compound?
The TGI was 28 µM.

What about the GI50 [28] of the same compound?
Its GI50 is 9.97 µM.

What about the TGI [28] of the same compound?
The TGI was over 100 µM.

What about the GI50 [29] of the same compound?
The GI50 was 20.9 µM.

And the TGI [29]?
The TGI was 48.7 µM.
